From patent US5315038A, “Microorganism for breaking down moenomycins, a process for the breakdown, and the use of the breakdown products” (Hoechst Aktiengesellschaft, priority 1988, dated 1994)
Converted amounts (≈) assume the structure as drawn.

Assays:
Moenomycinase [1] = assay: Moenomycinase activity (activation / inhibition); assay type: biochemical, Bacillus spec. DSM 4675
Source text: The dissolved enzyme was further purified by chromatography. For anion exchange chromatography, the enzyme was bound to a column of DEAE-52 (Whatman) or MonoQHR-5-5 (Pharmacia) and then eluted with 0.2-1.0M NaCl. Presence of moenomycinase in the fractions was monitored by measuring the conversion of moenomycin A to MC, as described in Example 3, below. Further purification was achieved using hydrophobic chromatography. The enzyme was bound to phenylsepharose (Pharmacia), and was then eluted with 40% methanol. The enzyme was concentrated by ultrafiltration using an ultrafiltration membrane (Millipore) which retains molecules with molecular weights ≥10,000 Dalton.

transglycosylase [2] = biological target: T1, transglycosylase (Escherichia coli, UniProt P02919); assay: Another study: inhibition of the transglycosylase reaction, in vitro peptidoglycan synthesis; assay type: biochemical, E. coli K 12; details: Final Concentration 12.5 μg/l
T1 sequence (P02919 whole entry): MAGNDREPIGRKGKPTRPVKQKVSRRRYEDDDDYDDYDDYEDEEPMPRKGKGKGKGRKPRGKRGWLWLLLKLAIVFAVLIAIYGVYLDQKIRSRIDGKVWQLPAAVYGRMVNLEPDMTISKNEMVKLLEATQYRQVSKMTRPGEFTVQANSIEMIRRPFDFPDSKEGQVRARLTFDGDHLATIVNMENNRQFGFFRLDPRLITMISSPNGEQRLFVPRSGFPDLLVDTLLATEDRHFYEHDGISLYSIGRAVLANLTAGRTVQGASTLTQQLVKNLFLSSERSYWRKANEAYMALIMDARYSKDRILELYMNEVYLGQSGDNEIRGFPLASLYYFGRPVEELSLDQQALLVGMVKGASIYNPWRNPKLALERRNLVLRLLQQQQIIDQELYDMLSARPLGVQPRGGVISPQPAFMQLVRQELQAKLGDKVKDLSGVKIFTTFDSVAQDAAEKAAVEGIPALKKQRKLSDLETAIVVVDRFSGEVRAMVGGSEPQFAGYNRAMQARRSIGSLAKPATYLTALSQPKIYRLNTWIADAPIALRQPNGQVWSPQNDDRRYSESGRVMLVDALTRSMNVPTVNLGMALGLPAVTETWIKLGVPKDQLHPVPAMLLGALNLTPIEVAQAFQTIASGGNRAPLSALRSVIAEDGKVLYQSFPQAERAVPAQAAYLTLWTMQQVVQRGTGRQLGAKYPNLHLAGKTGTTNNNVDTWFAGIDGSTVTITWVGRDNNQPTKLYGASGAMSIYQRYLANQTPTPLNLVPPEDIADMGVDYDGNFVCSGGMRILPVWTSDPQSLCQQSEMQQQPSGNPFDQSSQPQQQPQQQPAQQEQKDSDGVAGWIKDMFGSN
Protocol: (§1) The inhibition of the polymerization of the peptidoglycan-sugar chains by the cleavage products was carried out by the assay described by Izaki (J. Biol. Chem. 243, 3180-3192, 1968) using lipid intermediates from the cell membrane of E. coli K 12.
Results of another study of the inhibition of the transglycosylase reaction by moenomycin cleavage products in vitro is shown in the following Table. The values in the Table show the inhibition of peptidoglycan-sugar chain synthesis in vitro. Decahydro MB is an analog of MB that has no double bonds in the alkyl chain.

E. coli DC2 = assay: Agar dilution test, Mueller-Hinton agar (minimum inhibitory concentration); assay type: cell-based; details: Escherichia coli
Protocol: (§2) An agar dilution test with Mueller-Hinton agar was carried out to determine the antibacterial activities (Antibiotics in Laboratory Medicine, V. Lorian, Ed., Baltimore 1986, pages 1-10).

Staph. aureus 503 = assay: as above; assay type: cell-based; details: Staphylococcus aureus
Protocol: as §2

Str. pyogenes 77 = assay: as above; assay type: cell-based; details: Streptococcus pyogenes
Protocol: as §2

transglycosylase [3] = biological target: T1, transglycosylase; assay: Transglycosylase assay (Izaki), inhibition of polymerization of the peptidoglycan-sugar chains; assay type: biochemical, E. coli K 12; details: moenomycin A 20 μg/ml; concentration of MB not stated separately
Protocol: as §1

Moenomycinase [4] = assay: Moenomycinase kinetics (Km for substrate); assay type: biochemical, Bacillus spec. DSM 4675; details: moenomycin A as substrate
[5] = test system: biosynthesis of the peptidoglycan framework of the bacterial cell wall; details: cited from earlier work

Compound: CC(=O)OCC1=C(C(=O)O)N2C(=O)[C@@H](N)[C@H]2SC1 [7-aminocephalosporin acid (7-ACA), 7-aminocephalosporin acid]
- inhibition of moenomycinase (Moenomycinase [1]): inhibited

Compound: CC(=O)OCC1=C(C(=O)O)N2C(=O)[C@@H](NC(=O)CCC[C@@H](N)C(=O)O)[C@H]2SC1 [Cephalosporin C]
- inhibition of moenomycinase (Moenomycinase [1]): inhibited

Compound: CC(C)CCCC(C)CCC(C)CCC(C)(C)CCCCC(C)CCO[C@H](COP(=O)(O)O)C(=O)O (stereo partly shown) [Decahydro MB]
- % Inhibition of In Vitro Peptidoglycan Synthesis (transglycosylase [2]): 28%

Compound: O=C(O)CN(CCN(CC(=O)O)CC(=O)O)CC(=O)O [EDTA]
- inhibition of moenomycinase (Moenomycinase [1]): inhibited

Compound: C=C(CC=C(C)CCC=C(C)C)CCC(C)(C)C=CCCC(C)=CCO[C@H](CO)C(=O)O [MA]
- MIC (E. coli DC2): > 100 µg/mL
- MIC (Staph. aureus 503): > 100 µg/mL
- MIC (Str. pyogenes 77): > 100 µg/mL
- % Inhibition of In Vitro Peptidoglycan Synthesis (transglycosylase [2]): 67%

Compound: C=C(CC=C(C)CCC=C(C)C)CCC(C)(C)C=CCCC(C)=CCO[C@H](COP(=O)(O)O)C(=O)O [MB]
- MIC (E. coli DC2): > 100 µg/mL
- MIC (Staph. aureus 503): 25 µg/mL (≈ 47.5 µM)
- MIC (Str. pyogenes 77): 3.12 µg/mL (≈ 5.93 µM)
- inhibition of the transglycosylase reaction (transglycosylase [3]): 32.9%
- % Inhibition of In Vitro Peptidoglycan Synthesis (transglycosylase [2]): 94%

Compound: C=C(CC=C(C)CCC=C(C)C)CCC(C)(C)C=CCCC(C)=CCOC(COP(=O)(O)OC1OC(C(N)=O)C(C)(O)C(OC(N)=O)C1OC1OC(COC2OC(CO)C(O)C(O)C2O)C(OC2OC(C)C(OC3OC(C(=O)NC4=C(O)CCC4=O)C(O)C(O)C3O)C(O)C2NC(C)=O)C(O)C1NC(C)=O)C(=O)O (stereo not shown) [moenomycin A]
- Km (Moenomycinase [4]): 4 to 10 mM
- inhibition of the biosynthesis of the peptidoglycan framework of the bacterial cell wall [5]: inhibits

Compound: formalin
- inhibition of moenomycinase (Moenomycinase [1]): inhibited
